From ChEMBL document CHEMBL1201862, “PubChem BioAssay data set” (2004) come the findings set out here.

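Step 1: Grow cells in 96-well plates. Step 2: Expose to compound for 48 hours at 5 concentrations. Step 3: Interpolate endpoints linearly; if unreached, use highest concentration. GI50 is the concentration that inhibits growth by half.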 Activity calls are given as the source filed them. Rule as the data show it: active = GI50 up to about 1.1 µM and inactive = higher. Some results are limits rather than exact numbers.

Test systems include K562; MDA-N; MOLT-4; COLO 205; SR; T47D; MCF7; SF-539; HCC 2998; KM12; HL-60; TK-10; DU-145; SN12C; MDA-MB-435; A549; OVCAR-8; HCT-15; NCI-H23.
Holding throughout (test): growth of human tumour cells (NCI), 48 h

For the compound `O=[N+]([O-])c1ccc2ncccc2c1CCc1c([N+](=O)[O-])ccc2ncccc12`, the GI50 with K562, in the assay with MDA-N, with MOLT-4, in the assay with COLO 205, in the assay with SR and in the assay with T47D was > 100 µM (inactive) throughout. Also, the GI50 in the assay on MCF7, with SF-539, with HCC 2998, in the assay with KM12, with HL-60 and with TK-10 was > 100 µM (inactive) each time. For the same compound, the GI50 is > 100 µM (inactive) in the assay on DU-145; > 100 µM (inactive) in the assay with SN12C; > 100 µM (inactive) in the assay with MDA-MB-435; > 100 µM (inactive) with A549; > 100 µM (inactive) in the assay on OVCAR-8; more than 100 µM in the assay on HCT-15. In addition, the GI50 with NCI-H23 was > 100 µM (inactive).

For the compound `COc1cc2c(c(OC)c1OC)-c1ccc(SC)c(=O)cc1C(NC(=O)c1ccccc1)CC2` (centres undefined), the GI50 in the assay with K562 is < 0.01 µM (active); in the assay on MDA-N, < 0.01 µM (active); with MOLT-4 it was < 0.01 µM (active); in the assay with COLO 205 it was < 0.01 µM (active); in the assay with SR, < 0.0137 µM (active); with T47D, 86.3 µM (inactive). In addition, the GI50 was < 0.01 µM (active) with MCF7; 0.0118 µM (active) in the assay with SF-539; < 0.01 µM (active) with HCC 2998; < 0.01 µM (active) in the assay on KM12; < 0.01 µM (active) in the assay on HL-60; 0.24 µM (active) in the assay with TK-10. The GI50 in the assay on DU-145 is < 0.01 µM (active); with SN12C, < 0.01 µM (active); in the assay on MDA-MB-435, < 0.01 µM (active); in the assay with A549, < 0.01 µM (active); with OVCAR-8, < 0.01 µM (active); in the assay on HCT-15, less than 0.01 µM. For the same compound, the GI50 with NCI-H23 was 0.0107 µM (active).

Consider `Clc1ccc(Cl)c(/N=N\c2cc3c4c(c2)CCN4CCC3)c1`, for which the GI50 in the assay on K562, in the assay with MDA-N, with MOLT-4, with COLO 205, with SR and with T47D was > 10 µM (inactive) in each case. Besides, the GI50 with MCF7, in the assay on SF-539, in the assay with HCC 2998, in the assay with KM12, in the assay with HL-60 and in the assay on TK-10 was > 10 µM (inactive) each time. The GI50 in the assay on DU-145 was > 10 µM (inactive); in the assay on SN12C, > 10 µM (inactive); with MDA-MB-435, > 10 µM (inactive); in the assay with A549, > 10 µM (inactive); with OVCAR-8 it was > 10 µM (inactive); in the assay with HCT-15 it was more than 10 µM. Moreover, the GI50 with NCI-H23 was > 10 µM (inactive).

Take `CCOC(=O)N/N=C/C1=NN(C(=O)OCC)[S+]([O-])C1C` (centres undefined): the GI50 in the assay with K562, in the assay on MDA-N, in the assay on MOLT-4, with COLO 205, in the assay on SR and in the assay on T47D was > 100 µM (inactive) each time. Moreover, the GI50 in the assay with MCF7, with SF-539, in the assay on HCC 2998, in the assay on KM12, in the assay on HL-60 and in the assay on TK-10 was > 100 µM (inactive) in each case. In addition, the GI50 with DU-145 is > 100 µM (inactive); in the assay with SN12C it was > 100 µM (inactive); in the assay on MDA-MB-435, > 100 µM (inactive); with A549, > 100 µM (inactive); with OVCAR-8 it was > 100 µM (inactive); in the assay with HCT-15, more than 100 µM. The GI50 in the assay on NCI-H23 was > 100 µM (inactive).

In the case of `O=[N+]([O-])c1cc(-c2nc(-c3ccccc3)c(-c3ccccc3)[nH]2)c(O)c([N+](=O)[O-])c1`, the GI50 in the assay with K562 was 30.8 µM (inactive); in the assay with MDA-N, 31.1 µM (inactive); in the assay on MOLT-4, 22.8 µM (inactive); with COLO 205, 21.8 µM (inactive); with SR it was 20.8 µM (inactive); with T47D, 20.3 µM (inactive). Besides, the GI50 in the assay on MCF7 was 24.7 µM (inactive); in the assay with SF-539, 19.5 µM (inactive); in the assay with HCC 2998 it was 16.6 µM (inactive); with KM12, 24.9 µM (inactive); in the assay on HL-60, 25.6 µM (inactive); with TK-10, 28.5 µM (inactive). Moreover, the GI50 with DU-145 was 21.9 µM (inactive); in the assay with SN12C it was 26.5 µM (inactive); with MDA-MB-435, 32.6 µM (inactive); in the assay on A549, 34.4 µM (inactive); in the assay on OVCAR-8, 34 µM (inactive); with HCT-15, 15.8 µM. Moreover, the GI50 in the assay with NCI-H23 is 16.9 µM (inactive).

Consider `C=CCN(CCNS(=O)(=O)c1ccc(C)cc1)S(=O)(=O)c1ccc(C)cc1`, for which the GI50 with K562 is > 54.1 µM (inactive); with MDA-N it was 46.3 µM (inactive); with MOLT-4, > 45.7 µM (inactive); in the assay with COLO 205, > 44.5 µM (inactive); with SR, > 100 µM (inactive); in the assay on T47D, > 51.1 µM (inactive). Moreover, the GI50 is > 51.9 µM (inactive) in the assay with MCF7; 75.9 µM (inactive) in the assay on SF-539; > 69.5 µM (inactive) with HCC 2998; 57.8 µM (inactive) with KM12; 21.9 µM (inactive) in the assay with HL-60; > 55.2 µM (inactive) in the assay on TK-10. Also, the GI50 was 54.6 µM (inactive) with DU-145; > 72.6 µM (inactive) in the assay with SN12C; > 57.9 µM (inactive) in the assay on MDA-MB-435; 13.9 µM (inactive) in the assay with A549; 17.3 µM (inactive) with OVCAR-8; more than 55.5 µM with HCT-15. In addition, in the assay on NCI-H23, the GI50 was > 50.1 µM (inactive).

On to `CC#CC(=O)SCCNC(=O)CC`, for which the GI50 was > 5.38 µM (inactive) in the assay on K562; 6.07 µM (inactive) in the assay with MDA-N; 1.48 µM (inactive) in the assay on MOLT-4; 3.27 µM (inactive) with COLO 205; > 4.79 µM (inactive) with SR; > 6.5 µM (inactive) in the assay with T47D. Besides, the GI50 with MCF7 was 4.41 µM (inactive); with SF-539 it was 9.02 µM (inactive); in the assay with HCC 2998, > 10 µM (inactive); in the assay with KM12, > 10 µM (inactive); in the assay on HL-60 it was > 5.57 µM (inactive); in the assay with TK-10, > 10 µM (inactive). In addition, the GI50 in the assay with DU-145 was > 10 µM (inactive); in the assay with SN12C it was > 10 µM (inactive); with MDA-MB-435 it was 7.24 µM (inactive); with A549 it was > 10 µM (inactive); in the assay on OVCAR-8 it was > 10 µM (inactive); in the assay on HCT-15, more than 10 µM. Also, the GI50 in the assay on NCI-H23 is > 10 µM (inactive).

Consider `CCOC(=O)NC(Nc1cccc(C(F)(F)F)c1)(C(F)(F)F)C(F)(F)F`, for which the GI50 in the assay with K562, in the assay on MDA-N, in the assay on MOLT-4, in the assay with COLO 205, in the assay with SR and with T47D was > 100 µM (inactive) in each case. Moreover, the GI50 in the assay with MCF7, in the assay on SF-539, in the assay with HCC 2998, with KM12, in the assay on HL-60 and in the assay on TK-10 was > 100 µM (inactive) each time. Moreover, the GI50 with DU-145 was > 100 µM (inactive); with SN12C it was > 100 µM (inactive); in the assay with MDA-MB-435 it was > 100 µM (inactive); in the assay on A549, > 100 µM (inactive); in the assay on OVCAR-8, > 100 µM (inactive); in the assay on HCT-15, more than 100 µM. Also, in the assay with NCI-H23, the GI50 was > 100 µM (inactive).

Take `O=C(NCCc1ccccn1)c1ccc2cc(C(=O)N3CC(CCl)c4ccc([N+](=O)[O-])cc43)[nH]c2c1` (centres undefined): the GI50 with K562, in the assay on MDA-N, in the assay on MOLT-4, in the assay on COLO 205, in the assay with SR and in the assay with T47D was > 100 µM (inactive) in each case. Moreover, the GI50 in the assay on MCF7 was > 67.9 µM (inactive); with SF-539 it was > 43.4 µM (inactive); in the assay with HCC 2998 it was 61.5 µM (inactive); in the assay with KM12, > 100 µM (inactive); in the assay with HL-60, > 100 µM (inactive); in the assay with TK-10 it was 20.7 µM (inactive). Besides, the GI50 with DU-145 was > 52.4 µM (inactive); with SN12C, > 65 µM (inactive); with MDA-MB-435 it was > 100 µM (inactive); with A549, > 72.9 µM (inactive); in the assay on OVCAR-8 it was 9.12 µM (inactive); in the assay with HCT-15, 77.4 µM. Also, the GI50 in the assay on NCI-H23 is 45.3 µM (inactive).

Take `CC(C)=CCCC(C)C1=C(O)C(=O)C(C)=CC1=O` (centres undefined): the GI50 was 0.336 µM (active) in the assay on K562; 5.78 µM (inactive) in the assay with MDA-N; 1.8 µM (inactive) in the assay with MOLT-4; 5.75 µM (inactive) with COLO 205; 1.29 µM (inactive) with SR; 2.07 µM (inactive) with T47D. Also, the GI50 in the assay on MCF7 was 5.74 µM (inactive); in the assay on SF-539, 19.6 µM (inactive); in the assay on HCC 2998, 12.8 µM (inactive); in the assay on KM12, 18.3 µM (inactive); in the assay with HL-60, 0.332 µM (active); with TK-10, 7.73 µM (inactive). The GI50 with DU-145 is 17.6 µM (inactive); in the assay on SN12C, 14.7 µM (inactive); in the assay on MDA-MB-435 it was 16.7 µM (inactive); in the assay on A549, 45.5 µM (inactive); in the assay on OVCAR-8 it was 18.1 µM (inactive); in the assay on HCT-15 it was 2.23 µM. Further, in the assay on NCI-H23, the GI50 is 16.7 µM (inactive).

For `CC(=O)N1c2ccccc2C(C)C1c1[nH]c2ccccc2c1C` (centres undefined), the GI50 in the assay with K562 is 19.5 µM (inactive); in the assay on MDA-N it was 19.9 µM (inactive); with MOLT-4 it was 19.7 µM (inactive); with COLO 205, 13.5 µM (inactive); in the assay on SR it was 13.9 µM (inactive); in the assay on T47D, 18.8 µM (inactive). Besides, the GI50 in the assay on MCF7 was 28.1 µM (inactive); in the assay with SF-539 it was 11 µM (inactive); in the assay on HCC 2998, 16.3 µM (inactive); in the assay on KM12, 16.1 µM (inactive); with HL-60 it was 18.6 µM (inactive); with TK-10, 22.8 µM (inactive). Further, the GI50 in the assay with DU-145 is 28.3 µM (inactive); in the assay with SN12C, 17.1 µM (inactive); with MDA-MB-435 it was 18.2 µM (inactive); in the assay on A549, 23.4 µM (inactive); with OVCAR-8 it was 20.8 µM (inactive); in the assay with HCT-15 it was 27.2 µM. Further, the GI50 with NCI-H23 is 23.8 µM (inactive).
